Measurements as given in publication PMC10348910, “Epigenetic reprogramming of cell cycle genes by ACK1 promotes breast cancer resistance to CDK4/6 inhibitor” (Oncogene, 2023).
One block for each compound: values may come before it.

How the values were obtained:
MDA-MB-468 xenografts = test: MDA-MB-468 xenograft in mammary fat pad; assay type: in vivo, female SCID mice
Experimental: To validate these findings in breast tumors, MDA-MB-468 cells were injected in female SCID mice. Once palpable tumors were formed (5 weeks), mice were treated with vehicle (6% captisol), palbociclib (80 mg/Kg of body weight), (R)-9b (36 mg/Kg of body weight) by oral route, or (R)-9b (24 mg/Kg of body weight) by subcutaneous injection, five times a week.
Fig. 7 ACK1 inhibitor overcomes palbociclib-resistant breast cancer growth and metastasis. A 3 × 10^6 MDA-MB-468 cells were injected in the 4th inguinal mammary fat pad of female SCID mice. Once the tumors were palpable, the mice were treated with either vehicle (Captisol; n = 7), Palbociclib at 80 mg/kg (n = 6), or (R)-9b at 36 mg/Kg (n = 6) orally. In addition, mice were injected with (R)-9b at 24 mg/Kg (n = 7) subcutaneously. Mice were treated five times a week, for 22 days. B, C The tumors were harvested and photographed, and the weights were recorded. D Vehicle or (R)-9b treated breast cancer cells were subjected to ChIP using pY88-H4 antibody, followed by qPCR for CXCR4 gene. E CXCR4 mRNA transcript levels in vehicle or (R)-9b treated MDA-MB-231 cells. 18S rRNA was used as housekeeping gene. F MDA-MB-231 cells were transfected with ACK1 or scrambled siRNA, followed by qRT-PCR to determine CXCR4 mRNA transcript levels. G Representative lung metastatic deposits of MDA-MB-231 cells injected via the tail veins in female SCID mice, treated with either vehicle or 24 mg/Kg (R)-9b orally. H Graphical quantitation of lung metastatic deposit. I and J 5 × 10^5 luciferase expressing 4T1 cells were injected into 4th inguinal mammary fat pad of female BALB/c mice. Once the tumors were palpable, mice were treated with either vehicle or (R)-9b at 24 mg/Kg (n = 3, each) subcutaneously for 2 weeks, five times a week. The metastases were assessed using IVIS. Data are represented as the mean ± SEM. *p < 0.05; **p < 0.01; ***p < 0.001. For (A, C–F, I), p values were calculated using unpaired two-tailed Student’s t test.
All animal experiments were performed using the standards for humane care in accordance with the NIH Guide for the Care and Use of Laboratory Animals. Mice were obtained from Charles River Laboratories and experiments were performed according to IACUC protocols (IACUC # 20180259) approved in writing by Washington University in St. Louis Department of Comparative Medicine (DCM). 1.5 × 10^6 Cal-148 or MCF7, or 3 × 10^6 MDA-MB-468 cells were suspended in 200 µl of PBS with 50% matrigel (BD Biosciences) and were implanted subcutaneously into the mammary fat pad (between fourth and fifth inguinal) of female SCID C.B17 mice (n = 8 per group). Once the tumors were palpable (about 4–5 weeks), mice were randomly chosen for subcutaneous injection (Cal-148 and MCF7; 24 mg/Kg body weight) or given oral gavage with (R)-9b (MCF7; 36 mg/Kg body weight) resuspended in 6% Captisol (or 6% Captisol in PBS as vehicle), five times a week, for 4–5 weeks. Tumor volumes were measured twice a week using calipers. At the end of the study, all mice were humanely euthanized, tumors extracted and weighed.

BT549 = test: proliferation assay, trypan blue exclusion; assay type: cell-based; conditions: BT549 (lacking Rb), 96 h
Experimental: (§1) A–F Breast cancer cells were treated with either vehicle or (R)-9b for 48 h; cells were harvested and processed for cell cycle analysis using propidium iodide staining, followed by flow cytometry. G BT549 and H MDA-MB-468 cells were treated with varying drug concentrations of palbociclib or (R)-9b for 96 h and the cell viability assessed using trypan blue exclusion method. I BT549, and J MDA-MB-468 cells were treated with 1 µM palbociclib or (R)-9b for 48 h and subjected to cell cycle analysis using propidium iodide staining, followed by flow-cytometry. Palbociclib-resistant MDA-MB-231 (K) and HCC-1395 (L) were generated and treated with varying drug concentrations of palbociclib or (R)-9b for 96 h and the cell viability assessed using trypan blue exclusion method.
(§2) For proliferation assay, 5 × 10^4 cells were plated in 6-well plate and treated with either vehicle (DMSO) or varying concentrations of (R)-9b or palbociclib in complete media for 96 h and number of viable cells were counted by trypan blue exclusion assay. Breast cancer cell lines were treated with vehicle or varying concentrations of (R)-9b for 72 h. The cells were harvested, washed 2 times with PBS and incubated with 3 ul of Annexin V-FITC antibody according to the manufacturers protocol (BD Biosciences). Five µl Propidium iodide was used to stain necrotic cells. The cells were acquired using the BD FACSCalibur machine (BD Biosciences) and data was analyzed using FlowJo software. Cell cycle analysis was performed as mentioned earlier. Briefly, vehicle or (R)-9b (48 h) treated cells were harvested by trypsinization, washed 2 times with PBS, and fixed using chilled 70% Ethanol for 1 h, followed by 2 washes with PBS. The cell pellets were treated with 50 µl RNase A (100 µg/ml; Sigma) for 15 min at 37 °C and Propidium Iodide (PI; 50 µg/ml, Sigma) was added to these cells, followed by acquisition using BD FACS Canto-II or FACSCalibur machines. The data were analyzed using FlowJo software.

MDA-MB-468 = test: proliferation assay, trypan blue exclusion; assay type: cell-based; conditions: MDA-MB-468 (lacking Rb), 96 h
Experimental: as §1, §2

[1] = human, plasma
in vitro [2] = conditions: human
in vitro [3] = conditions: rat
AR+ TNBC = test system: AR+ TNBC; parameters: method as in PMID 29373071, PMID 25944485; conditions: cited from earlier work
[4] = test system: advanced ER+/AR+ breast cancer; parameters: method as in NCT00755885; conditions: ref NCT00755885, cited from earlier work

- weights of the mice (MDA-MB-468 xenografts; palbociclib 80 mg/Kg, (R)-9b 36 mg/Kg oral or 24 mg/Kg subcutaneous): modest decrease in weights
Compound: CC(=O)c1c(C)c2cnc(Nc3ccc(N4CCNCC4)cn3)nc2n(C2CCCC2)c1=O [palbociclib, reference compound]
- xenograft tumor growth (MDA-MB-468 xenografts; palbociclib 80 mg/Kg oral, (R)-9b 36 mg/Kg oral or 24 mg/Kg subcutaneous, five times a week, 3 weeks): robust tumor growth
- histology (H&E) of heart, spleen, kidneys and livers (MDA-MB-468 xenografts; palbociclib 80 mg/Kg, (R)-9b oral and subcutaneous): did not reveal histological abnormalities
- sensitivity (cell proliferation) (BT549): resistant
- sensitivity (cell proliferation) (MDA-MB-468): resistant

- % Bound [1]: 98.53%
- % Unbound [1]: 1.47%
- recovery (in vitro [2]; % Recovery): 92.3%
- fraction unbound (in vitro [2]; plasma, % Bound): 0.0147
- remaining at 6 h (in vitro [2]; plasma, % Remaining at 6 hr): 97.8%
- fraction unbound (in vitro [2]; plasma, % Unbound): 0.0147
- recovery (in vitro [3]; % Recovery): 86.7%
- fraction unbound at 6 h (in vitro [3]; plasma, % Bound): 0.0069
- remaining at 6 h (in vitro [3]; plasma, % Remaining at 6 hr): 88.2%
- fraction unbound at 6 h (in vitro [3]; plasma, % Unbound): 0.0069
Compound: CC(=O)CC(c1ccccc1)c1c(O)c2ccccc2oc1=O (stereo not shown) [warfarin]

Compound: CNC(=O)c1ccc(N2C(=S)N(c3ccc(C#N)c(C(F)(F)F)c3)C(=O)C2(C)C)cc1F [enzalutamide]
- clinical benefit rate (AR+ TNBC; at 16 weeks): 33%
- median progression-free survival duration (AR+ TNBC): 3.3 months

Compound: C[C@]12CC[C@H](O)CC1=CC[C@@H]1[C@@H]2CC[C@]2(C)C(c3cccnc3)=CC[C@@H]12 [abiraterone]
- clinical benefit rate ([4]; in 24 weeks): 20%
- median progression-free survival duration [4]: 2.8 months
